The values that follow come from US20150141414A1, “Formulation of Stable Recombinant Alpha-Fetoprotein Conjugated with Anti-Tumor Substance in Target-Delivery System for Treatment of Cancer and Autoimmune Disease” (priority 2013, published 2015).

The test system of series [1] is cat. The settings on record: cited from earlier work.
The test system of series [2] is mouse. The settings on record: cited from earlier work.
The test system of series [3] is rat. Particulars: cited from earlier work.
The test system of series [4] is lymphocyte of an average healthy person. As to the kind of experiment: Dose-dependent survival of lymphocytes of a healthy person. It counts as cell-based. The settings on record: Homo sapiens, read-out: 50% growth inhibition concentration. From the text:
Each value depicted in FIGS. 1A and 1B is the mean of three determinations with coefficient of variation less than 20%.

Series [5] deals with Hela cervical cancer cells. As to the kind of experiment: MTT cytotoxicity assay, Hela cervical cancer cells. The format is cell-based. Particulars: Homo sapiens, mean of three determinations, read-out: 50% growth inhibition concentration (1050). How it is done: The cytotoxicity of dactinomycin incorporated in PLGA conjugated with rAFP was tested with Hela cervical cancer cells. It is recognized that the use of PLGA as the controlled release polymer system is particularly suitable for the intent of the present invention because PLGA is well known for its safety in clinic. The Hela cells were doused with both dactinomycin in bulk. MTT assay was then performed to quantify the inhibitory concentration. […] 1050 was calculated from the cell viability data as the drug concentration in which cell growth was inhibited by 50%.
Background: Tetrazolium assays rely on reduction of a dye to a coloured formazan, in cell work by metabolically active cells.

Series [6] relates to pigeon. The settings on record: intravenous injection; cited from earlier work.
For series [7], the system named is frog. The settings on record: intravenous injection; cited from earlier work.

Where two headings read alike, the source gives them in different places. Starred links: 1 amine or outer side, 2 acyl side, 3 side chain; linkers in the order of their positions; H or OH if unused. Positions of bridges follow the written chain, without caps; N, C: chain ends. Non-standard residues stand in square brackets, D forms with d. Residues, ends and D or L forms follow the SMILES beside them. Chains are numbered I, II in the order given. Actinocin(9to1) = Cc1c2oc3c(C)ccc(C(=O)[*:1])c3nc-2c(C(=O)[*:2])c(N)c1=O; NMeV = CN[C@H](C(=O)O)C(C)C; Sar = CNCC(=O)O

As to `C[C@]12CC[C@H](O)C[C@H]1CC[C@@H]1[C@@H]2CC[C@]2(C)[C@@H](c3ccc(=O)oc3)CC[C@]12O` [bufalin], the LD50 intravenous in series [1] was 0.14 mg/kg; in series [2] (mouse, intravenous) it was 0.74 mg/kg.
As to `Cc1c2oc3c(C)ccc(C(=O)N[C@@H]4C(=O)N[C@H](C(C)C)C(=O)N5CCC[C@H]5C(=O)N(C)CC(=O)N(C)[C@@H](C(C)C)C(=O)O[C@@H]4C)c3nc-2c(C(=O)N[C@@H]2C(=O)N[C@H](C(C)C)C(=O)N3CCC[C@H]3C(=O)N(C)CC(=O)N(C)[C@@H](C(C)C)C(=O)O[C@@H]2C)c(N)c1=O` [dactinomycin in bulk, Dactinomycin] (I: T[dV]P[Sar][NMeV] / II: T[dV]P[Sar][NMeV]; ester I:1-I:C, II:1-II:C; linker I:N-II:N via Actinocin(9to1)), the “oral LD50” value in series [3] (rat, oral) was 7.2 mg/kg; in series [2] (mouse, oral) it was 7.8 mg/kg. The “lethal dose as multiple of maximum recommended daily human dose (body surface area basis)” value in series [3] (rats, intravenous 500 mcg/kg) is 5.4 times; in series [2] (mice, intravenous 700 mcg/kg) it was 3.8 times. Also, the lethal intravenous dose was 0.5 mg/kg in series [3] (rats, intravenous) and 0.7 mg/kg in series [2] (mice, intravenous). The IC50 came to 23.8 nM in series [4] and 1.7 nM in series [5].
As for `C[C@H]1O[C@@H](O[C@H]2[C@@H](O)C[C@H](O[C@H]3[C@@H](O)C[C@H](O[C@H]4CC[C@@]5(C)[C@H](CC[C@@H]6[C@@H]5CC[C@]5(C)[C@@H](C7=CC(=O)OC7)CC[C@]65O)C4)O[C@@H]3C)O[C@@H]2C)C[C@H](O)[C@@H]1O` [digitoxin], the LD50 intravenous in series [6] was 0.32 mg/kg; in series [2] (mouse, intravenous injection), 4.1 mg/kg; in series [7], 0.73 mg/kg.
Regarding `CN(Cc1cnc2nc(N)nc(N)c2n1)c1ccc(C(=O)N[C@@H](CCC(=O)O)C(=O)O)cc1` [methotrexate], the LD50 intravenous in series [3] (rats, intravenous) is 14 mg/kg body weight.
For the molecule `COc1cc2c(Nc3ccc(Br)cc3F)ncnc2cc1OCC1CCN(C)CC1` [vandetanib], in series [3] (rats, intravenous), the LD50 intravenous is recorded as 17-41 mg/kg body weight.
